Data reported in ChEMBL document CHEMBL1149515, “Small molecule inhibitors of IgE synthesis” (Bioorg Med Chem Lett, 2006).
Activity calls are given as the source filed them. The calls are words filed in the database; no cut-off is given here.

Columns and labels:
PBL = assay: Inhibition of IL4-induced IgE synthesis in human peripheral blood lymphocytes; assay type: functional, cell-based
[1] = Stability in human liver microsome at 1uM; assay type: ADME; conditions: liver microsomes
CYP1A1 = assay: Half life assessed as CYP1A1 mediated metabolism at 1 uM; assay type: ADME
CYP1A2 = assay: Half life assessed as CYP1A2 mediated metabolism at 1 uM; assay type: ADME
[2] = Lipophilicity, LogD of the compound; assay type: physicochemical; conditions: octanol/water
Salmonella typhi = assay: Mutagenic activity against […] by Ames assay; assay type: functional, organism-based; conditions: Salmonella enterica subsp. enterica […]

## c1cnc(N2CCN(c3nccn4ccnc34)CC2)nc1
PBL
  IC50: 0.018 µM
[1]
  half-life at 1 µM: 45 min
CYP1A1
  half-life at 1 µM: < 2 min
CYP1A2
  half-life at 1 µM: 2 min
[2]
  logD: 2
Salmonella typhi
  Activity: Active

## c1cn2ccnc2c(N2CCN(C3CCCC3)CC2)n1
PBL
  IC50: > 10 µM
[1]
  half-life at 1 µM: > 120 min
CYP1A2
  half-life at 1 µM: > 120 min

## CN1CCC(NC(=O)c2cn3ccnc3c(N3CCN(c4ccccn4)CC3)n2)CC1
PBL
  IC50: 0.037 µM
[1]
  half-life at 1 µM: > 120 min
CYP1A1
  half-life at 1 µM: 45 min
CYP1A2
  half-life at 1 µM: 95 min

## CC(C)(C)NC(=O)c1cn2ccnc2c(N2CCN(c3ncccn3)CC2)n1
PBL
  IC50: 0.039 µM
[1]
  half-life at 1 µM: 3 min
CYP1A1
  half-life at 1 µM: 13 min
[2]
  logD: 3.7
Salmonella typhi
  Activity: inactive

## CCN1CCC(NC(=O)c2nc(N3CCN(c4ncccn4)CC3)c3nccn3c2C)CC1
PBL
  IC50: 0.049 µM
[1]
  half-life at 1 µM: > 120 min
CYP1A1
  half-life at 1 µM: > 120 min
[2]
  logD: 1.2

## c1cn2ccnc2c(-c2ccc(N3CCCC3)nc2)n1
PBL
  IC50: 0.055 µM
[1]
  half-life at 1 µM: 14 min
CYP1A1
  half-life at 1 µM: < 1 min
CYP1A2
  half-life at 1 µM: < 1 min
[2]
  logD: 2.5

## O=C(NC1CCNC1)c1cn2ccnc2c(N2CCN(c3ccccn3)CC2)n1 (stereo not drawn)
PBL
  IC50: 0.118 µM
[1]
  half-life at 1 µM: > 120 min
CYP1A2
  half-life at 1 µM: > 120 min

## O=C(CCc1cnc2c(N3CCN(c4ncccn4)CC3)nccn12)N1CCOCC1
PBL
  IC50: > 10 µM
CYP1A1
  half-life at 1 µM: > 120 min
CYP1A2
  half-life at 1 µM: > 120 min
